{"source": "paper PMC3971757", "about": "(Journal of Natural Products, 2013)", "key": {"[1]": {"target": "NA of influenza virus A PR/8/34 (Influenza A virus, UniProt P03468)", "sequence (P03468 whole entry, looked up)": "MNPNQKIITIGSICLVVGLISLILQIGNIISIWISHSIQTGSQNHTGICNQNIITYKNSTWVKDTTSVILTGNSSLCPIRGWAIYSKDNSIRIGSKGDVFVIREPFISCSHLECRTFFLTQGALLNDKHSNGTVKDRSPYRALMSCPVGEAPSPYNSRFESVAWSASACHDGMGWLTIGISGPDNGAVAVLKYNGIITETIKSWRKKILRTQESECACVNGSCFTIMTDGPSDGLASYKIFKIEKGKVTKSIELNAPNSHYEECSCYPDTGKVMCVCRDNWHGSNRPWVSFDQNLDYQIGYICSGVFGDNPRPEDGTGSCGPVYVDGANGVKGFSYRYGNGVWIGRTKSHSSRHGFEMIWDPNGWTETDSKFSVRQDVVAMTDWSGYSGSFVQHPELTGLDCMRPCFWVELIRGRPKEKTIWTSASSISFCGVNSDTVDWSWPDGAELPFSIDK", "assay": "biochemical", "design": "species or system influenza A virus H1N1 (A/PR/8/34)", "conditions": "50% NA inhibitory concentration against influenza virus A PR/8/34"}, "[2]": {"system": "NA of PR/8/34", "conditions": "read-out: IC50 NA inhibition (PR/8/34); earlier study; cited from earlier work"}, "[3]": {"target": "NA of influenza virus A HK/68 (Influenza A virus, UniProt Q91MA2)", "sequence (Q91MA2 whole entry, looked up)": "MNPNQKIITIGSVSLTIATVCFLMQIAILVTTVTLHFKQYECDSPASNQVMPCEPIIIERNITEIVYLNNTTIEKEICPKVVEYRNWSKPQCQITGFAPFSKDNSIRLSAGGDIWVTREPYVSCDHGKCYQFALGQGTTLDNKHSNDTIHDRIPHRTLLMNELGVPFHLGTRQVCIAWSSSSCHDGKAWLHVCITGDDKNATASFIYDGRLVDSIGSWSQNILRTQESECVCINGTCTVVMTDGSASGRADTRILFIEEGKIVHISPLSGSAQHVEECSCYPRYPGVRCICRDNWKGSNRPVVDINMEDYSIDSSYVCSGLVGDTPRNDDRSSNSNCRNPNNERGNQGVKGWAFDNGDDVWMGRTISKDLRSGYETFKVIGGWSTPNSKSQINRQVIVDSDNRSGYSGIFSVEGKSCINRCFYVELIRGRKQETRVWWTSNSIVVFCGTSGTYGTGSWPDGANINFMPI", "assay": "biochemical", "design": "species or system influenza A virus H3N2 (A/HongKong/68)"}, "[4]": {"system": "NA of influenza virus A/PR/8/34 (H1N1)", "conditions": "FL-based NA inhibition assay; cited from earlier work"}, "[5]": {"system": "NA of influenza virus A/Jinan/15/90 (H3N2)", "conditions": "FL-based NA inhibition assay; cited from earlier work"}, "[6]": {"system": "NA of influenza virus B/Jiangsu/10/2003", "conditions": "FL-based NA inhibition assay; cited from earlier work"}}}
{"smiles": "CC(C)=CCc1c(O)ccc(C(=O)/C=C/c2cc(O)c3c(c2)C=CC(C)(C)O3)c1O", "note": "[Compound 1, (E)-1-[2,4-dihydroxy-3-(3-methyl-2-butenyl)phenyl]-3-(8-hydroxy-2,2-dimethyl-2H-1-benzopyran-6-yl)-2-propen-1-one]", "values": [{"measurement": "IC50", "setting": "[1]", "result": 250, "unit": "nM"}]}
{"smiles": "O=C(CCc1ccccc1)C[C@@H]1C[C@@H](c2ccccc2)c2c(cc(/C=C/c3ccccc3)oc2=O)O1", "note": "[Katsumadain A, katsumadain A]", "values": [{"measurement": "IC50", "setting": "[2]", "result": 1050, "unit": "nM"}]}
{"smiles": "CC1(C)C=Cc2c(ccc3c2OCC(O)C3)O1", "note": "(stereo not drawn) [Compound 2, 3,4-dihydro-8,8-dimethyl-2H,8H-benzo[1,2-b:3,4-b′]dipyran-3-ol]", "values": [{"measurement": "IC50", "setting": "[1]", "result": "6470 ± 2590", "unit": "nM"}, {"measurement": "IC50", "setting": "[3]", "result": "12400 ± 4140", "unit": "nM"}]}
{"smiles": "CC1(C)C=Cc2c(ccc(-c3coc4cc(O)ccc4c3=O)c2O)O1", "note": "[Compound 5, glabrone]", "values": [{"measurement": "IC50", "setting": "[1]", "result": "400 ± 170", "unit": "nM"}, {"measurement": "IC50", "setting": "[3]", "result": "5340 ± 2290", "unit": "nM"}]}
{"smiles": "O=C1C[C@@H](c2ccc(O[C@@H]3O[C@H](CO)[C@@H](O)[C@H](O)[C@H]3O)cc2)Oc2cc(O)ccc21", "note": "[Compound 11, liquiritin]", "values": [{"measurement": "IC50", "setting": "[1]", "result": "83100 ± 17800", "unit": "nM"}, {"measurement": "activity against the NA of influenza virus A/PR/8/34 (H1N1)", "setting": "[4]", "result": "weak activity"}, {"measurement": "activity against the NA of influenza virus A/Jinan/15/90 (H3N2)", "setting": "[5]", "result": "weak activity"}, {"measurement": "activity against the NA of influenza virus B/Jiangsu/10/2003", "setting": "[6]", "result": "weak activity"}]}
{"smiles": "CC(C)=CCc1cc([C@@H]2CC(=O)c3ccc(O)c(CC=C(C)C)c3O2)ccc1O", "note": "[Compound 4, glabrol]", "values": [{"measurement": "IC50", "setting": "[1]", "result": 510, "unit": "nM"}, {"measurement": "IC50", "setting": "[3]", "result": "3060 ± 1210", "unit": "nM"}]}
{"smiles": "O=C1C[C@@H](c2ccc(O)cc2)Oc2cc(O)ccc21", "note": "[Compound 10, liquiritigenin]", "values": [{"measurement": "IC50", "setting": "[1]", "result": "2070 ± 370", "unit": "nM"}]}
{"smiles": "C=CCc1ccc(O)c(-c2ccc(O)c(CC=C)c2)c1", "note": "[Honokiol, honokiol, reference compound]", "values": [{"measurement": "IC50", "setting": "[1]", "result": 3010, "unit": "nM"}]}
{"smiles": "O=C1C[C@@H](c2ccc(O)cc2)Oc2cc(O[C@@H]3O[C@H](CO)[C@@H](O)[C@H](O)[C@H]3O)cc(O)c21", "note": "[Compound 12, prunin]", "values": [{"measurement": "IC50", "setting": "[1]", "result": "3000 ± 460", "unit": "nM"}]}
{"smiles": "COc1ccc(-c2coc3cc(O)ccc3c2=O)cc1", "note": "[Compound 3, biochanin B]", "values": [{"measurement": "IC50", "setting": "[1]", "result": "1370 ± 220", "unit": "nM"}, {"measurement": "activity against the NA of influenza virus A/PR/8/34 (H1N1)", "setting": "[4]", "result": "weak activity"}, {"measurement": "activity against the NA of influenza virus A/Jinan/15/90 (H3N2)", "setting": "[5]", "result": "weak activity"}, {"measurement": "activity against the NA of influenza virus B/Jiangsu/10/2003", "setting": "[6]", "result": "weak activity"}]}
{"smiles": "CC1(C)C=Cc2c(ccc([C@@H]3COc4c(ccc5c4C=CC(C)(C)O5)C3)c2O)O1", "note": "[Compound 6, hispaglabridin B]", "values": [{"measurement": "IC50", "setting": "[1]", "result": "1110 ± 530", "unit": "nM"}, {"measurement": "IC50", "setting": "[3]", "result": "2850 ± 1580", "unit": "nM"}]}
